Values of other authors, collected in patent EP3336085A1, “PROCESS AND INTERMEDIATE FOR THE PREPARATION OF 1-(4-(2-((1-(3,4-DIFLUOROPHENYL)-1H-PYRAZOL-3-YL)METHOXY)ETHYL)PIPERAZIN-1-YL)ETHANONE” (Laboratorios del Dr. Esteve S.A., priority 2016, dated 2018).
Read-outs that look alike come from different tables or passages of the source.

Experiments:
sigma-1 (σ1) receptor = sigma-1 (σ1) receptor (Homo sapiens, UniProt Q99720)
Chain of sigma-1 (σ1) receptor (Q99720 whole entry): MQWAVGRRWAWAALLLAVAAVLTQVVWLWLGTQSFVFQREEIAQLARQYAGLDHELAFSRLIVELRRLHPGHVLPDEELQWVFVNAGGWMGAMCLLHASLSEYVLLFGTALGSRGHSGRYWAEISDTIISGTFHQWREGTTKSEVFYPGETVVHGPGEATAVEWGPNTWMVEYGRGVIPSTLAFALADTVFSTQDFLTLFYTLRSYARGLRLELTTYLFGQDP

water solubility (pH=2): very soluble
water solubility (pH=7.4): very soluble
sigma-1 (σ1) receptor antagonist selectivity (sigma-1 (σ1) receptor): highly selective
Structure (SMILES): CC(=O)N1CCN(CCOCc2ccn(-c3ccc(F)c(F)c3)n2)CC1.Cl [1-(4-(2-((1-(3,4-difluorophenyl)-1 H-pyrazol-3-yl)methoxy)ethyl)piperazin-1-yl)ethanone hydrochloride]
